Data as given in BindingDB's records for doi:10.1016/j.chembiol.2011.01.012 (University of Luxembourg, 2011).
pIC50: −log10 of the molar value.

Legend:
[1] = molecular target: Tyrosine-protein kinase JAK1 (Homo sapiens, UniProt P23458); test: Enzyme Assay; details: pH 7.5; 30 °C
[2] = molecular target: Non-receptor tyrosine-protein kinase TYK2 (Homo sapiens, UniProt P29597); test: Enzyme Assay; details: pH 7.5; 30 °C
Sequence of Non-receptor tyrosine-protein kinase TYK2 (P29597 whole entry): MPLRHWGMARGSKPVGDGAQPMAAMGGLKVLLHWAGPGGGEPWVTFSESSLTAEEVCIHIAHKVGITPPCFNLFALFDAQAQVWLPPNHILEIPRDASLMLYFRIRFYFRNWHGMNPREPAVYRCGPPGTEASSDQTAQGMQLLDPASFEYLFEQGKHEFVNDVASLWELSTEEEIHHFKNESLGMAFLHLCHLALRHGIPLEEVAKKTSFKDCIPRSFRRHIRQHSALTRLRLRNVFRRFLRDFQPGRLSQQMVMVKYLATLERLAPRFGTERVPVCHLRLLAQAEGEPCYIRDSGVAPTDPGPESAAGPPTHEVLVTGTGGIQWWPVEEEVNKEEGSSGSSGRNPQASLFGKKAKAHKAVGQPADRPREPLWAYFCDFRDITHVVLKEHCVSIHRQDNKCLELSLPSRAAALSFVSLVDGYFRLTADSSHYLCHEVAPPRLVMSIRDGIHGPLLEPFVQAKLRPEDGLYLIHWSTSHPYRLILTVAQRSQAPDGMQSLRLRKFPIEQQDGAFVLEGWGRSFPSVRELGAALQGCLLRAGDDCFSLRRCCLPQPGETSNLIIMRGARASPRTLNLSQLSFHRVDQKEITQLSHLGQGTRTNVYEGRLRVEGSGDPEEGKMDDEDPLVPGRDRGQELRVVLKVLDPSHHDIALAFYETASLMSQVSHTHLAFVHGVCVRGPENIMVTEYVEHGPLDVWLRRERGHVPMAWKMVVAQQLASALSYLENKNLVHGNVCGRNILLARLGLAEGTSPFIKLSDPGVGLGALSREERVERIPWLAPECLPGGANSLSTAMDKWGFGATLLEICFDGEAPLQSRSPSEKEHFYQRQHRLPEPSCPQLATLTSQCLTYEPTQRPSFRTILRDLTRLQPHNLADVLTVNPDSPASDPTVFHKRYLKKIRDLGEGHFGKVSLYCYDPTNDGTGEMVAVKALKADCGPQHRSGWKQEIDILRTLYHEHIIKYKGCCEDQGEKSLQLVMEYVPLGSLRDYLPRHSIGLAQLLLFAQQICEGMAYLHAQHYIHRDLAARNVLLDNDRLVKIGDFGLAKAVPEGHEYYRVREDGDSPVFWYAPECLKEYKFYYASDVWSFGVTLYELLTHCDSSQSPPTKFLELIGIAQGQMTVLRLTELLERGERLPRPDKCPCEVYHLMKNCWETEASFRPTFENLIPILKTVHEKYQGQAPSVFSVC

Sequence of Tyrosine-protein kinase JAK1 (P23458 whole entry): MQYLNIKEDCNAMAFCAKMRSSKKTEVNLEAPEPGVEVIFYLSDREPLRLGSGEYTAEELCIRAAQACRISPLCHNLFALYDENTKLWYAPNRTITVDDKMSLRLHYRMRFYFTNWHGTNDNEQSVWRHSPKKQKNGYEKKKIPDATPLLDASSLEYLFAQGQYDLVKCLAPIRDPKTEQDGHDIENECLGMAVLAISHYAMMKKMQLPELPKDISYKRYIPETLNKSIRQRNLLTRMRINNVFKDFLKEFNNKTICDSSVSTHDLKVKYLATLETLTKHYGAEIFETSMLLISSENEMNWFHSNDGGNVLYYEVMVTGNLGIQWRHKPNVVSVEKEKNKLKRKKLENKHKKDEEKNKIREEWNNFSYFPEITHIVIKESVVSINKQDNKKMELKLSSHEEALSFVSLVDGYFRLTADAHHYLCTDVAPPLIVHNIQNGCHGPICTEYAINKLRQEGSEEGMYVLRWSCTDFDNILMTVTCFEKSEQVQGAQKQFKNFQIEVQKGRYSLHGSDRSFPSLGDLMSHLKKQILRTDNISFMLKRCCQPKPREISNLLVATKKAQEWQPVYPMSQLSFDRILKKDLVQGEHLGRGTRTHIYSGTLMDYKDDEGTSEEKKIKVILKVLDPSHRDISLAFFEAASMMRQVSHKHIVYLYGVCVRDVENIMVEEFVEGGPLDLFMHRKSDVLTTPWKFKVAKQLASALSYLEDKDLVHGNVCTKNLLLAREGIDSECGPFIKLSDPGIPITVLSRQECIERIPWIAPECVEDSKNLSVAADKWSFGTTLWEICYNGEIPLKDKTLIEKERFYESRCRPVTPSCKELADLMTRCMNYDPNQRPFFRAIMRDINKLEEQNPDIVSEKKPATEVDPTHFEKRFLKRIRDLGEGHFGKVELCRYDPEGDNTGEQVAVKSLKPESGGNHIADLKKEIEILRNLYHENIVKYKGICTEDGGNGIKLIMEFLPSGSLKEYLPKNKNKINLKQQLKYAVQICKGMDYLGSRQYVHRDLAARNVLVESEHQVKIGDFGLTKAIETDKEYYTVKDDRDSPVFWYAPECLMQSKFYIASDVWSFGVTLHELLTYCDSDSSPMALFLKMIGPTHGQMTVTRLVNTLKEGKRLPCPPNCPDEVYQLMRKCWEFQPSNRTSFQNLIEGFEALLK

pIC50 [1]: 5.99
pIC50 [2]: 5.09
SMILES: CC(C)(O)C(=O)N1CCN(c2ccc(C(F)(F)F)c(C3=C(c4c[nH]c5ccccc45)C(=O)NC3=O)c2)CC1 [NIBR3049]
